From patent US20230295234A1, “ANTIMICROBIAL PEPTIDOMIMETICS” (SPEXIS AG, priority 2020, published 2023)
Peptide text beside a SMILES is read from it.

Tests used:
[1] = system: Escherichia coli MCR-1 Af 45; settings: MCR-1 Af 45
In short: (§1)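 Activity is measured against peptides serially diluted two-fold in water with 0.002% final Polysorbate 80. The cells are in cation-adjusted MHII broth at roughly 5×10^5 CFU/mL, prepared from a 0.5 McFarland suspension in 0.85% NaCl.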

[2] = system: Escherichia coli ATCC 25922; settings: ATCC 25922
In short: as §1

[3] = system: Klebsiella pneumoniae SSI3010; settings: SSI3010
In short: as §1

[4] = system: human red blood cells (hRBC); assay: Hemolysis of human red blood cells; type: cell-based; settings: red cells of human, 1 h
In short: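 PBS-washed human red blood cells (20% v/v) were incubated with peptide at 200 μg/mL for 1 h at 37 °C with shaking. Supernatant OD was read at 540 nm after 8-fold dilution. Hemolysis is expressed as percent of the water control.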

Structure (SMILES)	Escherichia coli MCR-1 Af 45 MIC [1] [µg/mL]	Escherichia coli ATCC 25922 MIC [2] [µg/mL]	Klebsiella pneumoniae SSI3010 MIC [3] [µg/mL]	Hemolysis at 0.2 g/L [4] [%]
CCCC[C@H](NC(=O)[C@H](CCCNC(=N)N)NC(=O)[C@H](CCC(N)=O)NC(=O)[C@@H]1CSSC[C@H](NC(=O)[C@H](Cc2ccc(O)cc2)NC(=O)[C@@H](NC(=O)[C@@H](NC(=O)[C@@H]2CCCN2C(=O)[C@@H](NC(=O)[C@@H]2CCCN2C(=O)[C@H](CCCCN)NC(=O)[C@@H](N)CCCCN)C(C)C)[C@@H](C)CC)[C@@H](C)CC)C(=O)N[C@@H](CC(N)=O)C(=O)N[C@@H](CCCNC(=N)N)C(=O)N[C@@H](CCCNC(=N)N)C(=O)N[C@@H]([C@@H](C)O)C(=O)N[C@H](CCN)C(=O)N[C@@H](CCN)C(=O)N1)C(=O)O [Example 69] (HELM PEPTIDE1{K.K.P.V.P.I.I.Y.C.N.R.R.T.[NCC[C@@H](N[*:1])C(=O)[*:2]].[Dab].C.Q.R.[Nle]}$PEPTIDE1,PEPTIDE1,9:R3-16:R3$$$V2.0)	0.125	0.0625	0.125	0
CCCC[C@H](NC(=O)[C@H](CCCNC(=N)N)NC(=O)[C@H](CCN)NC(=O)[C@@H]1CSSC[C@H](NC(=O)[C@H](Cc2ccc(O)cc2)NC(=O)[C@@H](NC(=O)[C@@H](NC(=O)[C@@H]2CCCN2C(=O)[C@@H](NC(=O)[C@@H]2CCCN2C(=O)[C@H](CCCCN)NC(=O)[C@H](N)CCCCN)C(C)C)[C@@H](C)CC)[C@@H](C)CC)C(=O)N[C@@H](CC(N)=O)C(=O)N[C@@H](CCCNC(=N)N)C(=O)N[C@@H](CCCNC(=N)N)C(=O)N[C@@H]([C@@H](C)O)C(=O)N[C@H](CCN)C(=O)N[C@@H](CCCCN)C(=O)N1)C(=O)O [Example 70] (HELM PEPTIDE1{[dK].K.P.V.P.I.I.Y.C.N.R.R.T.[NCC[C@@H](N[*:1])C(=O)[*:2]].K.C.[Dab].R.[Nle]}$PEPTIDE1,PEPTIDE1,9:R3-16:R3$$$V2.0)	0.0625	0.03125	0.125	0
CC[C@H](C)[C@H](NC(=O)[C@@H](NC(=O)[C@@H]1CCCN1C(=O)[C@@H](NC(=O)[C@@H]1CCCN1C(=O)[C@H](CCCNC(=N)N)NC(=O)[C@@H](N)CCCCN)C(C)C)[C@@H](C)CC)C(=O)N[C@@H](Cc1ccc(O)cc1)C(=O)N[C@H]1CSSC[C@@H](C(=O)N[C@@H](CCN)C(=O)N[C@@H](CCCNC(=N)N)C(=O)N[C@@H](Cc2ccc(O)cc2)C(=O)O)NC(=O)[C@H](CCCCN)NC(=O)[C@@H](CCN)NC(=O)[C@H]([C@@H](C)O)NC(=O)[C@H](CCN)NC(=O)[C@H](CCCNC(=N)N)NC(=O)[C@H](CC(N)=O)NC1=O [Example 71] (HELM PEPTIDE1{K.R.P.V.P.I.I.Y.C.N.R.[Dab].T.[NCC[C@@H](N[*:1])C(=O)[*:2]].K.C.[Dab].R.Y}$PEPTIDE1,PEPTIDE1,9:R3-16:R3$$$V2.0)	0.0625	0.0625	0.0625	0
CCCC[C@H](NC(=O)[C@H](CCCNC(=N)N)NC(=O)[C@H](CCN)NC(=O)[C@@H]1CSSC[C@H](NC(=O)[C@H](Cc2ccc(O)cc2)NC(=O)[C@H](CCCNC(=N)N)NC(=O)[C@@H](NC(=O)[C@@H]2CCCN2C(=O)[C@@H](NC(=O)[C@@H]2CCCN2C(=O)[C@H](CCCNC(=N)N)NC(=O)[C@@H](N)CCCCN)C(C)C)[C@@H](C)CC)C(=O)N[C@@H](CC(N)=O)C(=O)N[C@@H](CCCNC(=N)N)C(=O)N[C@@H](CCN)C(=O)N[C@@H]([C@@H](C)O)C(=O)N[C@H](CCN)C(=O)N[C@@H](CCCCN)C(=O)N1)C(=O)O [Example 72] (HELM PEPTIDE1{K.R.P.V.P.I.R.Y.C.N.R.[Dab].T.[NCC[C@@H](N[*:1])C(=O)[*:2]].K.C.[Dab].R.[Nle]}$PEPTIDE1,PEPTIDE1,9:R3-16:R3$$$V2.0)	0.0625	≤0.0625	≤0.25	0
CCCC[C@H](NC(=O)[C@H](CCCNC(=N)N)NC(=O)[C@H](CCN)NC(=O)[C@H]1NC(=O)[C@H](CCCCN)NC(=O)[C@@H](CCN)NC(=O)[C@H]([C@@H](C)O)NC(=O)[C@H](CCN)NC(=O)[C@H](CCCNC(=N)N)NC(=O)[C@H](CC(N)=O)NC(=O)[C@@H](NC(=O)[C@H](Cc2ccc(O)cc2)NC(=O)[C@@H](NC(=O)[C@@H](NC(=O)[C@@H]2CCCN2C(=O)[C@@H](NC(=O)[C@@H]2CCCN2C(=O)[C@H](CCCNC(=N)N)NC(=O)[C@@H](N)CCCCN)C(C)C)[C@@H](C)CC)[C@@H](C)CC)CSSC1(C)C)C(=O)O [Example 73] (HELM PEPTIDE1{K.R.P.V.P.I.I.Y.C.N.R.[Dab].T.[NCC[C@@H](N[*:1])C(=O)[*:2]].K.[Pen].[Dab].R.[Nle]}$PEPTIDE1,PEPTIDE1,9:R3-16:R3$$$V2.0)	0.0625	≤0.125	0.125	0
CCCC[C@H](NC(=O)[C@H](CCCNC(=N)N)NC(=O)[C@H](CCN)NC(=O)[C@@H]1CSSC[C@H](NC(=O)[C@H](Cc2ccc(O)cc2)NC(=O)[C@H](CCCNC(=N)N)NC(=O)[C@@H](NC(=O)[C@@H]2C[C@@H](N)CN2C(=O)[C@@H](NC(=O)[C@@H]2CCCN2C(=O)[C@H](CCCCN)NC(=O)[C@@H](N)CCCCN)C(C)C)[C@@H](C)CC)C(=O)N[C@@H](CC(N)=O)C(=O)N[C@@H](CCCNC(=N)N)C(=O)N[C@@H](CCCNC(=N)N)C(=O)N[C@@H]([C@@H](C)O)C(=O)N[C@H](CCN)C(=O)N[C@@H](CCCCN)C(=O)N1)C(=O)O [Example 74] (HELM PEPTIDE1{K.K.P.V.[N[C@@H]1C[C@@H](C(=O)[*:2])N([*:1])C1].I.R.Y.C.N.R.R.T.[NCC[C@@H](N[*:1])C(=O)[*:2]].K.C.[Dab].R.[Nle]}$PEPTIDE1,PEPTIDE1,9:R3-16:R3$$$V2.0)	0.0625	0.03125	0.0625	0
CCCC[C@H](NC(=O)[C@H](CCCNC(=N)N)NC(=O)[C@H](CCN)NC(=O)[C@@H]1CSSC[C@H](NC(=O)[C@H](Cc2ccc(O)cc2)NC(=O)[C@H](CCCNC(=N)N)NC(=O)[C@@H](NC(=O)[C@@H]2CCCN2C(=O)[C@@H](NC(=O)[C@@H]2CCCN2C(=O)[C@H](CCCNC(=N)N)NC(=O)[C@@H](N)CCCCN)C(C)C)[C@@H](C)CC)C(=O)N[C@@H](CC(N)=O)C(=O)N[C@@H](CCCNC(=N)N)C(=O)N[C@@H](CCCNC(=N)N)C(=O)N[C@@H]([C@@H](C)O)C(=O)N[C@H](CCN)C(=O)N[C@@H](CCCCN)C(=O)N1)C(=O)O [Example 75] (HELM PEPTIDE1{K.R.P.V.P.I.R.Y.C.N.R.R.T.[NCC[C@@H](N[*:1])C(=O)[*:2]].K.C.[Dab].R.[Nle]}$PEPTIDE1,PEPTIDE1,9:R3-16:R3$$$V2.0)	0.0625	≤0.0625	0.0625	0
CCCC[C@H](NC(=O)[C@H](CCCNC(=N)N)NC(=O)[C@H](CCN)NC(=O)[C@@H]1CSSC[C@H](NC(=O)[C@H](Cc2ccc(O)cc2)NC(=O)[C@@H](NC(=O)[C@@H](NC(=O)[C@@H]2CCCN2C(=O)[C@@H](NC(=O)[C@@H](CCCCN)NC(=O)[C@H](CCCCN)NC(=O)[C@H](N)C(C)C)C(C)C)[C@@H](C)CC)[C@@H](C)CC)C(=O)N[C@@H](CC(N)=O)C(=O)N[C@@H](CCCNC(=N)N)C(=O)N[C@@H](CCCNC(=N)N)C(=O)N[C@@H]([C@@H](C)O)C(=O)N[C@H](CCN)C(=O)N[C@@H](CCCCN)C(=O)N1)C(=O)O [Example 76] (HELM PEPTIDE1{[dV].K.[dK].V.P.I.I.Y.C.N.R.R.T.[NCC[C@@H](N[*:1])C(=O)[*:2]].K.C.[Dab].R.[Nle]}$PEPTIDE1,PEPTIDE1,9:R3-16:R3$$$V2.0)	≤0.03125	0.0625	0.125	0
CCCC[C@H](NC(=O)[C@H](CCCNC(=N)N)NC(=O)[C@H](CCN)NC(=O)[C@@H]1CSSC[C@H](NC(=O)[C@H](Cc2ccc(O)cc2)NC(=O)[C@H](Cc2c[nH]cn2)NC(=O)[C@@H](NC(=O)[C@@H]2CCCN2C(=O)[C@@H](NC(=O)[C@@H](CCCCN)NC(=O)[C@H](CCCCN)NC(=O)[C@@H](N)CCCCN)C(C)C)[C@@H](C)CC)C(=O)N[C@@H](CC(N)=O)C(=O)N[C@@H](CCCNC(=N)N)C(=O)N[C@@H](CCCNC(=N)N)C(=O)N[C@@H]([C@@H](C)O)C(=O)N[C@H](CCN)C(=O)N[C@@H](CCCCN)C(=O)N1)C(=O)O [Example 77] (HELM PEPTIDE1{K.K.[dK].V.P.I.H.Y.C.N.R.R.T.[NCC[C@@H](N[*:1])C(=O)[*:2]].K.C.[Dab].R.[Nle]}$PEPTIDE1,PEPTIDE1,9:R3-16:R3$$$V2.0)	0.0625	0.125	0.25	0
CC[C@H](C)[C@H](NC(=O)[C@@H](NC(=O)[C@@H]1CCCN1C(=O)[C@@H](NC(=O)[C@@H]1CCCN1C(=O)[C@H](CCCCN)NC(=O)[C@@H](N)CCCCN)C(C)C)[C@@H](C)CC)C(=O)N[C@@H](Cc1ccc(O)cc1)C(=O)N[C@H]1CSSC[C@@H](C(=O)N[C@@H](CCN)C(=O)N[C@@H](CCCNC(=N)N)C(=O)N[C@@H](CC2CC2)C(=O)O)NC(=O)[C@H](CCCCN)NC(=O)[C@@H](CCN)NC(=O)[C@H]([C@@H](C)O)NC(=O)[C@H](CCN)NC(=O)[C@H](CCCNC(=N)N)NC(=O)[C@H](CC(N)=O)NC1=O [Example 79] (HELM PEPTIDE1{K.K.P.V.P.I.I.Y.C.N.R.[Dab].T.[NCC[C@@H](N[*:1])C(=O)[*:2]].K.C.[Dab].R.[O=C(O)[C@H](CC1CC1)N[*:1]]}$PEPTIDE1,PEPTIDE1,9:R3-16:R3$$$V2.0)	≤0.03125	0.0625	0.125	0
